These results are taken from US20040180819A1, “Characterization of a membrane estrogen receptor” (priority 2001, published 2004).

The term Kd denotes the free concentration of one partner at which half of the binding sites on the other are occupied at equilibrium, for simple one-to-one binding. A lower Kd goes with tighter binding.

One assay has as its target mER receptor. The assay is described as follows: Saturation binding / Scatchard analysis, D12 membrane (P2) fraction. Details: species or system rat. How it is done: (§1) Briefly, cells were harvested in a binding buffer (10 mM Tris-HCl, 1 mM EDTA, 1 mM DTT; pH=7.2) containing 5 μg/ml protease inhibitors (aprotinin, leupeptin, phosphoramidon, PMSF, pepstatin), pelleted to remove cell media and then homogenized by mechanical disruption (polytron; speed 6 for 10 sec). Unlysed cells and debris were removed by centrifugation at 15,000×g for 15 min at 4° C. The resulting supernatant was homogenized and membranes were isolated by centrifugation at 100,000×g for 1 h at 4° C. The supernatant obtained following the high speed spin was labeled S2 (cytosol) while the pellet was labeled P2 (membranes). The pellet (P2) was resuspended using a glass homogenizer in 3 ml of 0.25 M sucrose in binding buffer. The sucrose gradient was layered in a 15 ml centrifuge tube starting with 41%, 25%, and 10% sucrose using J tubes. The P2 sample was added to the top and the remaining layer was capped with binding buffer. The tubes were centrifuged at 35,000×g for 1 h, placed in a fraction collector (bottom tube draw) and 500 μl samples were collected. Protein concentrations were determined with BCA reagent (Pierce). […] Statistical significance between IC50s and KDs was determined using a pair-wise Z-test. […]

In a further assay the target is T1, ERα receptor (Rattus norvegicus, UniProt P06211).
T1 sequence (P06211 1-600): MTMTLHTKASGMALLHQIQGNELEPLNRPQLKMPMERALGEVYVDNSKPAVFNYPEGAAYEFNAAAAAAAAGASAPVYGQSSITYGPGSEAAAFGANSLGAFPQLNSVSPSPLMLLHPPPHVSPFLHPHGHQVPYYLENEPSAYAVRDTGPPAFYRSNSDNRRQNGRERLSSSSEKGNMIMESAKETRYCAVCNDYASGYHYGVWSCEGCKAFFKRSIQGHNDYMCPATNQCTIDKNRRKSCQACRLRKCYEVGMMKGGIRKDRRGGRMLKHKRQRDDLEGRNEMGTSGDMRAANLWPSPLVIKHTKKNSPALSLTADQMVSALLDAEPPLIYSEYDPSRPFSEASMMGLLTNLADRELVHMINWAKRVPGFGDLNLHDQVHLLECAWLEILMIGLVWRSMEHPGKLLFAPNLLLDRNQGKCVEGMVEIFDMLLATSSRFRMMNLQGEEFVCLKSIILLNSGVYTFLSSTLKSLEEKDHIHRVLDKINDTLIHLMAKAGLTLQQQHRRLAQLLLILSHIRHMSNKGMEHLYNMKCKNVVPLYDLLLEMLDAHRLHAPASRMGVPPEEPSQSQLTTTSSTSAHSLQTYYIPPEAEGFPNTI
In words: Saturation binding / Scatchard analysis, D12 cytosolic (S2) fraction. Here is the method: as §1

Molecules are shown by their SMILES.

Turning to `C[C@]12CC[C@@H]3c4ccc(O)cc4CC[C@H]3[C@@H]1C[C@@H]([125I])[C@@H]2O` [[^125I]-16α-iodo-3,17β-E2, [^125I]-16-α-iodo-3,17-βestradiol], the Kd was 0.118 ± 0.0436 nM on mER receptor and 0.124 ± 0.0171 nM at ERα receptor (cytosolic (S2) binding). Further, the slope value at ERα receptor (S2 fraction) is reported as 0.8.
